Measured values published in US6291199A, “Human phosphodiesterase type IVC, and its production and use” (Celltech Therapeutics Limited, priority 1994, dated 2001).
Like-named read-outs stand apart in the source and are kept apart here.

Legend:
PDE IV D = settings: read-out: IC50 for rolipram inhibition; literature; cited from earlier work
PDE IV A = settings: read-out: IC50 for rolipram inhibition; literature; cited from earlier work
PDE IV B = settings: read-out: IC50 for rolipram inhibition; literature; cited from earlier work
PDE IVA [1] = settings: in situ, CHO + beta 2 adrenergic receptor + PDE IVA, 10 uM inhibitor
Protocol: Transfected cells were harvested with non-enzymatic cell dissociation reagent (Sigma) washed three times and re-suspended in Dulbecco's phosphate buffered saline containing 0.1% BSA and 0.1% glucose (DPBS+). The cells were incubated with 10 uM inhibitor (or solvent control, 0.1% DMSO) in DPBS+for 10 min at 37° C. The cell suspension was stimulated with isoproterenol (0.001-1 uM) for 2 min. The cells were pelleted at 12000 g and resuspended in 400 uL of boiling assay buffer 1s (DuPont cAMP measurement kit). The samples were heated in a boiling water bath for 10 min and frozen before being assayed for cAMP using a commercial cAMP radioimmunoassay (DuPont).

PDE IVA [2] = assay: Inhibition of recombinant human PDE IVA (cAMP hydrolysis); type: biochemical; settings: enzyme from CHO cell lysates
recombinant PDE IV = settings: Torphy et al. 1992; cited from earlier work
HL60 cells = assay: RT.PCR of PDE IV isoform mRNAs in Bt2 cAMP stimulated HL60 cells; type: cell-based, human; settings: HL-60 cells
Protocol: (§1) To identify a source of gene C mRNA, a number of cell lines were assayed for isoform mRNAs by reverse transcription coupled to polymerase chain reaction (RT.PCR). Total RNA was prepared using RNAzol (Biogenesis) and polyA+ mRNA selected by affinity chromatography using oligodT cellulose. 50 ng of first strand cDNA prepared by reverse transcriptase was amplified with the following pairs of gene specific primers for 40 cycles using the conditions, 94° C. 1 min, 55° C. 1 min, 72° C. 3 min.
(§2) The results of RT.PCR using the human gene primers to detect isoform mRNAs in both human tissue culture cells and rat tissues confirms that PDE IV mRNAs are widely distributed though the apparent levels of each isoform mRNA varies. Gene C mRNA appears to be more abundant than A,B, or D in cells derived from dorsal root ganglia and testes in rat. This latter result is consistent with data reported previously by Swinnen et al. (1989) ibid.

SKNSH cells = assay: RT.PCR of PDE IV isoform mRNAs in Bt2 cAMP stimulated SKNSH cells; type: cell-based, human; settings: SKN.SH cells
Protocol: as §1, §2

T lymphocytes = settings: relative to other enantiomer; Sommer et al. 1995; cited from earlier work
PDE IVA [3] = assay: Inhibition of recombinant human PDE IVA (cAMP hydrolysis); type: biochemical
Protocol: Isolation of cDNA Clones for Gene A
A partial cDNA for gene A was isolated by PCR from a cDNA library prepared from PMA stimulated U937 cells using published sequence information (Livi G. et al. (1990) ibid)). Subsequently a conserved region probe form this cDNA was used to isolate a full length cDNA clone from a human frontal cortex cDNA library by hybridisation and washing at moderate stringency (final wash 2×SSC, 0.5% SDS at 60° C.).
The full length gene for PDE IVA was introduced into pEE7 and pYES vectors for expression in COS and yeast cells respectively.
Recombinant PDE IV enzymes were produced in COS cells by transient expression as described by Whittle N. et al. [(1987) Prot. Engineering 1 499-505]. Briefly […] cells/ml were transfected with 10 ug of plasmid. After 3 days in culture cells were washed with PBS and lysed by brief sonciation in 50 mM TES buffer, pH 7.6, (N. tris[hydroxymethyl]methyl) 2-aminoethane sulphonic acid containing proteases inhibitors (50 uM leupeptin, 1 uM pepstatin, 1 um phenylmethylsulphonylfluoride, 2 uM benzamidine). The cell homogenate was centrifuged ×12000 g for 10 min. and assayed for PDE IV activity.
For expression of PDE IVA and C in yeast cells, the two genes were inserted into the vector pYES (InVitrogen) as either Hind3/Xba1 (gene A) or EcoR1 (gene C) fragments isolated from pDEFC17 and pDEU7 vectors respectively. The resulting plasmids were designated as pDEFC 32 and pDEU8 respectively. Yeast cells (B7542: alpha, ura-3,trp1+, Leu2delta, pep4: His3, prBdelta 1.6R can 1, gal) were transformed with pDEFC32 and pDEU8 vectors using the lithium acetate method (Ito H. et al. (1983) J.Bacteriol. 51 163-168). Ura3 positive prototrophs were isolated and grown at 30° C. to an OD600 =1.0 in minimal media containing 2% glucose and […] leucine. Cells were recovered by centrifugation, washed and resuspended at OD600 =0.5 in minimal media containing 2% galactose to induce PDE IV expression. At an OD600 =1.0 cells were harvested, washed and broken in TES buffer plus proteases (see above) by milling with glass beads (425-600 um) at 4° C. The homogenate was clarified by centrifugation at 100,000 g for 30 mins at 4° C.
Enzyme reactions were carried out at pH 7.6 in 50 mM TES buffer containing 10 mM MgCl2, 3',5' cAMP (0.1 uM ^3 H-labelled 0.74-1.1 TBq/mmol) 5'AMP (2.5 uM ^14 C, 1.85-2.2 GBq/mmol) for 30 min at 30° C. Sufficient enzyme preparation was added to hydrolyse not more than 20% of substrate under these conditions. […] Reactions were stopped by rapid inactivation of enzyme by addition of trifluoroacetic acid to a final concentration of 1%. Substrate and product of reaction were separated as described by Smith et al. [(1993) Analyt. Biochem. 214 355-357] and the [^3 H] 5'AMP product analysed by scintillation counting. Correction for losses of [^3 H] […] during separation was made by reference to [^14 C] 5'AMP included in the reaction mixture.

[4] = tested on: binding sites in the rodent forebrain tissue; settings: Schmiechen et al.; Kaulen et al. 1989; cited from earlier work
[5] = tested on: beta 2 adrenergic receptor; settings: CHO cells expressing human beta2 adrenergic receptor; isoproterenol 0.001-1 uM, 2 min
From the text: Isolation of Human Beta 2 Adrenergic Receptor Gene.
The human beta 2 adrenergic receptor gene (Kobilka B. et al. (1987) J.Biol. Chem. 262 7321-7327) was isolated from HL-60 cells genomic DNA by PCR using the following primers: […]
The plasmid was named pRO1 44.

asthma = settings: in vivo; cited from earlier work

**Q.** Which IC50 (PDE IV D) does the source give for `COc1ccc(C2CNC(=O)C2)cc1OC1CCCC1` (racemic) [Rolipram] here?
**A.** 200 to 500 nM

**Q.** And the IC50 (PDE IV A)?
**A.** 200 to 500 nM

**Q.** And the IC50 (PDE IV B)?
**A.** 200 to 500 nM

**Q.** What about the “reversal by rolipram of the prevention of cAMP accumulation, in words” value (PDE IVA [1]) of the same compound?
**A.** reversed

**Q.** What about the IC50 (PDE IVA [2]) of the same compound?
**A.** 287 nM

**Q.** What about the “high affinity binding of rolipram, in words” value (recombinant PDE IV) of the same compound?
**A.** stereoselectivity for high affinity binding

**Q.** With `CCCC(=O)Nc1ncnc2c1ncn2[C@@H]1O[C@@H]2COP(=O)(O)O[C@H]2[C@H]1OC(=O)CCC` [Bt2 CAMP] as the compound, how does the “levels of PDE IV isoform mRNAs, in words” value (HL60 cells) read?
**A.** levels of C and D but not A and B are elevated

**Q.** What about the “levels of PDE IV isoform mRNAs, in words” value (SKNSH cells) of the same compound?
**A.** levels of C and D but not A and B are elevated

**Q.** For `COc1ccc([C@@H]2CNC(=O)C2)cc1OC1CCCC1` [R-rolipram], which “effectiveness in suppression of TNF release” value (T lymphocytes) is on record?
**A.** approximately 50 times

**Q.** What about the IC50 (PDE IVA [3]; enzyme from COS cells, read-out: IC50, PDE IVA) of the same compound?
**A.** 292 nM

**Q.** What about the IC50 (PDE IVA [3]; enzyme from yeast, read-out: IC50, Yeast, A) of the same compound?
**A.** 298 nM

**Q.** What about the “affinity for binding sites over S-rolipram, in words” value [4] of the same compound?
**A.** higher affinity

**Q.** What about the IC50 (PDE IVA [2]) of the same compound?
**A.** 251 nM

**Q.** Which “cAMP levels, in words” value [5] does the source give for `CC(C)NCC(O)c1ccc(O)c(O)c1` (stereo not drawn) [isopreterenol] here?
**A.** dose-dependent increase in cAMP levels

**Q.** Which “effect in asthma, in words” value (asthma) does the source give for `Cn1c(=O)c2[nH]cnc2n(C)c1=O` [theophylline] here?
**A.** has been shown to have a therapeutic effect
